According to patent US10501493B2, “Broad spectrum antibiotics” (priority 2011, dated 2019):
Converted amounts (≈) assume the structure as drawn. Like-named read-outs stand apart in the source and are kept apart here.

Tests used:
E. coli ATCC 25922 = experiment: In vitro antimicrobial activity, MIC by broth micro-dilution; type: cell-based
Experimental: (§1) In vitro antimicrobial activity of each compound was determined by measuring minimal inhibitor concentrations (MICs) using the broth micro-dilution technique as approved by the Clinical and Laboratory Standards Institute (CLSI). The microbiological panel examined contains a number of bacterial species including E. coli MG1655, P. aeruginosa, S. aureus, and S. epidermidis. In addition, the panel includes previously described pseudo-isogenic strains of these four species (P. A. Smith et al. Chem Biol 2010, 1223-1231), in which a specific proline residue in SPase (called LepB in Gram-negative organisms an SpsB in Gram-positive organisms) has been mutated to a different amino acid. The resulting strains have increased susceptibility to the arylomycin class of antibiotics. Analysis of the strains lacking this proline residue will increases the dynamic range of the assay, and comparison of the sensitivities of the isogenic pairs provides ongoing confirmation that the activity gained through derivatization is specific to the inhibition of SPase. Briefly, bacterial streaks were grown on Mueller Hinton Agar II (Difco™) with or without 5% lysed horse blood for a period of 24 hours at either 35° C. or 28° C. Bacterial colonies were suspended in cation adjusted Mueller Hinton broth and diluted to a final concentration of 1*10^7 colony forming units/ml. Two-fold serial dilutions of each compound were arrayed into 96-well plates (100 μl final volume per well) and 5 ul of the bacterial suspension will be added. […] MICs were periodically checked plating serial dilutions of MIC wells and quantitatively determining viable colonies.

S. epidermidis RP62A = experiment: as above; type: cell-based; settings: for MIC: Staphylococcus epidermidis, RP62A, read-out: MIC class, S. epidermidis RP62A
Experimental: as §1

S. pneumoniae D39 = experiment: as above; type: cell-based; settings: for MIC: Streptococcus pneumoniae, D39, read-out: MIC class, S. pneumoniae D39
Experimental: as §1

[1] = system: S. aureus NCTC-8325 SpsB(P295); experiment: as above; type: cell-based; settings: for MIC: Staphylococcus aureus, NCTC8325, read-out: MIC class, S. aureus NCTC-8325 SpsB(P295)
Experimental: as §1

S. aurues NCTC-8325 = experiment: as above; type: cell-based, S. aureus; settings: for MIC: Staphylococcus aureus, NCTC8325, read-out: MIC class, S. aurues NCTC-8325
Experimental: as §1

[2] = system: E. col ATCC 25922 LepB(P84L); experiment: as above; type: cell-based, E. coli; settings: for MIC: Escherichia coli, ATCC25922, read-out: MIC class, E. col ATCC 25922 LepB(P84L)
Experimental: as §1

E. coli SPase = biological target: T1, E. coli SPase (Escherichia coli, UniProt P00803); experiment: Enzymatic fluorogenic substrate cleavage assay for IC50; type: biochemical
T1 construct: Full length His-tagged E. coli SPase proteins were expressed in E. coli BL21(DE3); His-tag; made in house; host or cells: E. coli BL21(DE3)
Experimental: (§2) Full length His-tagged E. coli SPase proteins were expressed in E. coli BL21(DE3) containing the plasmid pET23-lepB, P. A. Smith et al. Chem Biol 2010, 1223-1231. Briefly, saturated overnight cultures grown in 20 ml of Luria-Bertani medium supplemented with ampicillin were subcultures into 1.5 L of Luria-Bertani, and shaken at 37° C. until an optical density at 600 nm of 0.4-0.5 was achieved. Protein expression was induced with Isopropyl β-D-1-thiogalactopyranoside (ITPG) at a final concentration of […], and purified using nickel affinity chromatography. Full length His-tagged S. aureus SPase protein was expressed similarly from E. coli BL21(DE3) containing the plasmid pCDF1-SaSpsB or pCDF1-SaSpsB(P29S) and purified similarly to the E. coli protein with the following exceptions. SPase protein was solubilized using 300 mM NaCl, 20 mM Tris pH 8.06, 5 mM Imidazole, 10% glycerol, 1% Triton X-100, prior to purification in Ni-NTA Superflow resin and resin bound protein was washed in a similar buffer containing 1% Elugent in place of Triton X-100 prior to protein eluted in wash buffer supplemented with 300 mM imidazole. Protein purify was judged to exceed 95% by visual inspection of SDS-PAGE followed by Comassie staining. All protein concentrations were determined by BCA assay.
(§3) In addition to the equilibrium binding assays, compound activity is also characterized by measuring inhibition of E. coli and S. aureus substrate cleavage reactions using fluorogenic peptides developed at RQx Pharmaceuticals. Briefly, two fluorogenic peptide substrates (decanoyl-LSSPA Y^NO2 A ? ADK^abzPD (SEQ ID NO: 1) and decanyol-LTPTAY^NO2 A ? ASKK^abzDD (SEQ ID NO: 2)) have been synthesized, where abz is the fluorescence donor 2-aminobenzamide, YNO2 is the fluorescence acceptor 3-nitrotyrosine, and the cleavage site is indicated with an arrow. These substrates are processed with a second order rate constant (Kcat/KM) of 10^5 M^−1s^−1 for E. coli and S. aureus SPase enzymes, and cleavage results in a greater than 10-fold increase in fluorescence signal (excitation at 314 nm, emission at 416 nm) as measured using a SpectraMax M2 fluorescence microplate reader. Two-folder serial dilutions of compound are prepared in cleavage reaction buffer consisting of: 50 mM Tris-HCl pH 8.0, 100 mM NaCl, 10% glycerol, 1 mM EDTA, detergent (1% NP-40 or 0.1% Elugent™ for E. coli LepB or S. aureus SpsB respectively) and either 2.5 nM of E. coli SPase enzyme or 10 nM of S. aureus SPase enzyme. 40 μl aliquots of the compound dilution series in the protein/buffer solution is transferred to black 384-well polypropylene plates, and 10 μl of fluorogenic peptide at a concentration of 100 μM is added to initiate the reaction. The increase in fluorescence, corresponding to substrate cleavage, is monitored continuously at room temperature for 30 minutes and initial reaction rates are calculated based in the linear increase in fluorescence from the initial 30 minutes of the reaction. Reaction rates are plotted as a function of compound concentration, and IC50 values are determined nonlinear regression analysis (SoftMax® Pro v5.4) of the sigmoidal dose-response curve.

S. aureus SPase = biological target: T2, S. aureus SPase (Staphylococcus aureus, UniProt P0A070); experiment: as above; type: biochemical
T2 construct: Full length His-tagged S. aureus SPase protein was expressed similarly; His-tag; made in house; host or cells: E. coli BL21(DE3)
Experimental: as §2, §3

[3] = Escherichia coli, ATCC25922; read-out: MIC class, E. coli ATCC 25922
[4] = fluorogenic peptide cleavage, read-out: IC50 class E. coli SPase
[5] = fluorogenic peptide cleavage, read-out: IC50 class S. aureus SPase

| Structure (SMILES) | MIC (E. coli ATCC 25922; Escherichia coli, ATCC25922, read-out: MIC class, E. coli ATCC 25922) | MIC (S. epidermidis RP62A) | MIC (S. pneumoniae D39) | MIC [1] | MIC (S. aurues NCTC-8325) | MIC [2] | IC50 (E. coli SPase) | IC50 (S. aureus SPase) | MIC (E. coli ATCC 25922; [3]) | MIC class, E. coli ATCC 25922 (E. coli ATCC 25922; E. coli ATCC 25922) | MIC class, S. epidermidis RP62A (S. epidermidis RP62A) | MIC class, S. pneumoniae D39 (S. pneumoniae D39) | MIC class, S. aureus NCTC-8325 SpsB(P295) [1] | MIC class, S. aurues NCTC-8325 (S. aurues NCTC-8325) | MIC class, E. col ATCC 25922 LepB(P84L) [2] | IC50 (E. coli SPase; [4]) | IC50 (S. aureus SPase; [5]) |
| --- | --- | --- | --- | --- | --- | --- | --- | --- | --- | --- | --- | --- | --- | --- | --- | --- | --- |
| CCCCCCCCCCCCCCCC(=O)N(C)[C@H](CO)C(=O)N[C@H](C)C(=O)NCC(=O)N(C)[C@@H]1C(=O)N[C@@H](C)C(=O)N[C@H](C(=O)O)Cc2ccc(OC)c(c2)-c2cc1ccc2OC [Compound 77] | > 64 µg/mL | > 64 µg/mL | 16 to 64 µg/mL (≈ 17.6 to 70.4 µM) | 16 to 64 µg/mL (≈ 17.6 to 70.4 µM) | > 64 µg/mL | < 8 µg/mL | > 10000 nM | 1000 to 10000 nM | – | – | – | – | – | – | – | – | – |
| CCCCCCCCCCCCCCCC(=O)N(C)[C@H](CO)C(=O)N[C@H](C)C(=O)NCC(=O)N(C)[C@@H]1C(=O)N[C@@H](C)C(=O)N[C@H](C(=O)NCC(O)C(=O)O)Cc2ccc(O)c(c2)-c2cc1ccc2O (stereo partly shown) [Compound 78] | – | > 64 µg/mL | 16 to 64 µg/mL (≈ 16.5 to 66.1 µM) | > 64 µg/mL | > 64 µg/mL | > 64 µg/mL | < 1000 nM | > 10000 nM | > 64 µg/mL | – | – | – | – | – | – | – | – |
| CCCCCCCCCCCCCCCC(=O)N(C)C(CO)C(=O)N[C@H](C)C(=O)NCC(=O)N(C)[C@@H]1C(=O)N[C@@H](C)C(=O)NC(C(=O)NCC(O)C(N)=O)Cc2ccc(O)c(c2)-c2cc1ccc2O (stereo partly shown) [Compound 82] | – | > 64 µg/mL | 16 to 64 µg/mL (≈ 16.5 to 66.2 µM) | > 64 µg/mL | > 64 µg/mL | > 64 µg/mL | 1000 to 10000 nM | > 10000 nM | > 64 µg/mL | – | – | – | – | – | – | – | – |
| CCCCCCCCCCCCCCCC(=O)N(C)[C@H](CO)C(=O)N[C@H](C)C(=O)NCC(=O)N(C)[C@@H]1C(=O)N[C@@H](C)C(=O)N[C@H](C(=O)O)CCCc2ccc(O)c(c2)-c2cc1ccc2O [Compound 83] | – | – | – | – | – | – | – | – | – | a (MIC >64 μg/ml) | c (MIC ≤8 μg/ml) | c (MIC ≤8 μg/ml) | b (MIC 16-64 μg/ml) | a (MIC >64 μg/ml) | c (MIC ≤8 μg/ml) | 1000 to 10000 nM | < 1000 nM |
| CCCCCCCCCCCCCCCC(=O)N(C)[C@H](CO)C(=O)N[C@H](C)C(=O)N(C)CC(=O)N(C)[C@@H]1C(=O)N[C@@H](C)C(=O)N[C@H](C(=O)O)Cc2ccc(O)c(c2)-c2cc1ccc2O [Compound 84] | – | 16 to 64 µg/mL (≈ 17.9 to 71.5 µM) | < 8 µg/mL | > 64 µg/mL | > 64 µg/mL | > 64 µg/mL | < 1000 nM | < 1000 nM | > 64 µg/mL | – | – | – | – | – | – | – | – |
| CCCCCCCCCCC(=O)N(C)[C@H](CO)C(=O)N[C@H](C)C(=O)NCC(=O)N(C)[C@@H]1C(=O)N[C@@H](C)C(=O)N[C@H](C(=O)O)Cc2ccc(O)c(c2)-c2cc1ccc2O [Compound 85] | – | < 8 µg/mL | > 64 µg/mL | > 64 µg/mL | > 64 µg/mL | 16 to 64 µg/mL (≈ 19.7 to 78.9 µM) | < 1000 nM | 1000 to 10000 nM | > 64 µg/mL | – | – | – | – | – | – | – | – |
| CCCCCCCCCCCCC(=O)N(C)[C@H](CO)C(=O)N[C@H](C)C(=O)NCC(=O)N(C)[C@@H]1C(=O)N[C@@H](C)C(=O)N[C@H](C(=O)O)Cc2ccc(O)c(c2)-c2cc1ccc2O [Compound 86] | – | 16 to 64 µg/mL (≈ 19.1 to 76.3 µM) | 16 to 64 µg/mL (≈ 19.1 to 76.3 µM) | < 8 µg/mL | > 64 µg/mL | < 8 µg/mL | < 1000 nM | < 1000 nM | > 64 µg/mL | – | – | – | – | – | – | – | – |
| CCCCCCCCCCCCCCCC(=O)N[C@H](CO)C(=O)N[C@H](C)C(=O)N[C@@H](C)C(=O)N(C)[C@@H]1C(=O)N[C@@H](C)C(=O)N[C@H](C(=O)O)Cc2ccc(O)c(c2)-c2cc1ccc2O [Compound 87] | – | < 8 µg/mL | > 64 µg/mL | > 64 µg/mL | > 64 µg/mL | > 64 µg/mL | < 1000 nM | < 1000 nM | > 64 µg/mL | – | – | – | – | – | – | – | – |
| CCCCCCCCCCCCCCCC(=O)N(C)[C@H](CO)C(=O)N[C@H](C)C(=O)NCC(=O)N(C)[C@@H]1C(=O)N[C@@H](C)C(=O)N[C@H](C(=O)NCC(O)C(=O)NC)Cc2ccc(O)c(c2)-c2cc1ccc2O (stereo partly shown) [Compound 90] | – | – | – | – | – | – | – | – | – | a (MIC >64 μg/ml) | c (MIC ≤8 μg/ml) | c (MIC ≤8 μg/ml) | a (MIC >64 μg/ml) | a (MIC >64 μg/ml) | a (MIC >64 μg/ml) | 1000 to 10000 nM | 1000 to 10000 nM |
| CCCCCCCCCCCCCCCC(=O)N(C)[C@H](CO)C(=O)N[C@H](C)C(=O)N[C@@H](C)C(=O)N(C)[C@@H]1C(=O)N[C@@H](C)C(=O)N[C@H](C(=O)O)Cc2ccc(O)c(c2)-c2cc1ccc2O [Compound 91] | – | < 8 µg/mL | < 8 µg/mL | > 64 µg/mL | > 64 µg/mL | > 64 µg/mL | < 1000 nM | < 1000 nM | > 64 µg/mL | – | – | – | – | – | – | – | – |
| CCCCCCCCCCCCCCCC(=O)N(C)[C@H](CO)C(=O)N[C@H](C)C(=O)NCC(=O)N(C)[C@@H]1C(=O)N[C@@H](C)C(=O)N[C@H](C(=O)NCC=O)CCCc2ccc(O)c(c2)-c2cc1ccc2O [Compound 94] | – | – | – | – | – | – | – | – | – | a (MIC >64 μg/ml) | c (MIC ≤8 μg/ml) | b (MIC 16-64 μg/ml) | a (MIC >64 μg/ml) | a (MIC >64 μg/ml) | a (MIC >64 μg/ml) | < 1000 nM | < 1000 nM |
